Experimental findings from patent publication US9113629B2, “4-amino-6-(4-substituted-phenyl)-picolinates and 6-amino-2-(4-substituted-phenyl)-pyrimidine-4-carboxylates and their use as herbicides” (DOW AGROSCIENCES LLC, priority 2013, dated 2015) are described below.

Holding throughout (format): in vivo
For test [1], the system named is ECHCG: barnyardgrass (Echinochloa crus-galli). Briefly: Post-emergent Test I herbicidal activity. To be noted: post-emergence, 336 h, read-out: Visual Growth Reduction (%) 14 Days After Application, ECHCG; for pest or weed control at 4000 g/ha: 4 kg ai/ha; for pest or weed control at 4040 g/ha: 4.04 kg ai/ha. As for the experimental part:
(§1) Post-emergent Test I Seeds test species were obtained from commercial suppliers and planted into a 13 cm diameter-round pot containing soil-less media mix (metro-mix 360®, Sun Gro Horticulture). Postemergence treatments were planted 8-12 days prior to application and cultured in a greenhouse equipped with supplemental light sources to provide a 16 h photoperiod at 24-29° C. All pots were surface irrigated.
(§2) A weighted amount, determined by the highest rate to be tested, of each compound was dissolved in 1.3 mL acetone-DMSO (97:3, v/v) and diluted with 4.1 mL water-isopropanol-crop oil concentrate (78:20:2, v/v/v) containing 0.02% Triton X-155 to obtain concentrated stock solutions. Additional application rates were obtained by serial dilution of the high rate solution into a solution containing appropriate volume of 97:3 v/v mixture of acetone and DMSO and appropriate volume of an aqueous mixture of water, isopropyl alcohol, crop oil concentrate (78:20:2, v/v/v) containing 0.02% Triton X-155.
(§3) Formulated compounds were applied using a DeVilbiss® compressed air sprayer at 2-4 psi. Following treatment, pots were returned to the greenhouse for the duration of the experiment. All pots were sub-irrigated as need to provide optimum growing conditions. All pots were fertilized one time per week by subirrigating with Peters Peat-Lite Special® fertilizer (20-10-20).
(§4) […] All evaluations were made visually on a scale of 0 to 100 where 0 represents no activity and 100 represents complete plant death. Visual assessments of plant injury were made based on growth reduction, discoloration, leaf deformity and necrosis.

The test system of test [2] is AVEFA: wild oats (Avena fatua). The experiment in a line: Post-emergent Test I herbicidal activity. To be noted: post-emergence, 336 h, read-out: Visual Growth Reduction (%) 14 Days After Application, AVEFA; for pest or weed control at 4000 g/ha: 4 kg ai/ha. As for the experimental part:
as §1, §2, §3, §4

The test system of test [3] is SETFA: giant foxtail (Setaria faberi). Briefly: Post-emergent Test I herbicidal activity. To be noted: post-emergence, 336 h, read-out: Visual Growth Reduction (%) 14 Days After Application, SETFA; for pest or weed control at 4000 g/ha: 4 kg ai/ha; for pest or weed control at 4040 g/ha: 4.04 kg ai/ha. As to the method:
as §1, §2, §3, §4

The subject of test [4] is HELAN: sunflower (Helianthus annuus). Briefly: Post-emergent Test I herbicidal activity. To be noted: post-emergence, 336 h, read-out: Visual Growth Reduction (%) 14 Days After Application, HELAN; for pest or weed control at 4000 g/ha: 4 kg ai/ha; for pest or weed control at 4040 g/ha: 4.04 kg ai/ha. As to the method:
as §1, §2, §3, §4

Test [5] concerns IPOHE: ivyleaf morningglory (Ipomoea hederecea). Briefly: Post-emergent Test I herbicidal activity. To be noted: post-emergence, 336 h, read-out: Visual Growth Reduction (%) 14 Days After Application, IPOHE; for pest or weed control at 4000 g/ha: 4 kg ai/ha; for pest or weed control at 4040 g/ha: 4.04 kg ai/ha. As for the experimental part: as §1, §2, §3, §4
Test [6] deals with AMARE: redroot pigwseed (Amaranthus retroflexus). The experiment in a line: Post-emergent Test I herbicidal activity. To be noted: post-emergence, read-out: Visual Growth Reduction (%), AMARE; for pest or weed control at 4000 g/ha: 4 kg ai/ha. As to the method:
as §1, §2, §3, §4

Test [7] concerns test plant species in Direct Seeded Rice. The experiment in a line: Postemergence herbicidal activity in direct seeded rice (Table 13). To be noted: for pest or weed control at 35 g/ha / pest or weed control at 70 g/ha: post-emergence, 504 h; for pest or weed control at 35 g/ha: 35 g ai/ha; for pest or weed control at 70 g/ha: 70 g ai/ha. A digest of the protocol:
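Visual injury scores (0 no injury to 100 complete kill) taken 20-22 days after treatment were converted by probit analysis into GR20–GR90 doses. Treatment was an overhead track spray at 187 L/ha onto second-to-third true leaf plants, using acetone/DMSO (final 16.2%/0.5%) with Agri-dex crop oil; solvent blank served as control.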

The mark [8] stands for this setting: BRAPP: broadleaf signalgrass, Brachiaria platyphylla, probit analysis.
Where [9] appears, read: CYPSS: sedge (Cyperus difformis, esculentus, iria), probit analysis.
The mark [10] stands for this setting: ECHSS: barnyardgrass (Echinochloa crus-galli), junglerice (Echinochloa colonum), probit analysis.
[11] abbreviates: LEFSS: sprangletop (Leptochloa chinensis, Leptochloa dubia), probit analysis.
Where [12] appears, read: SCPJU: Japanese bulrush, Scirpus juncoides, probit analysis.
The mark [13] stands for this setting: SEBEX: hemp sesbania, Sesbania exaltata, probit analysis.
Where [14] appears, read: BRAPP: broadleaf signalgrass, Brachiaria platyphylla, read-out: Visual Growth Reduction (%) 21 Days After Application BRAPP.
Setting [15] is: CYPSS: sedge (Cyperus difformis, esculentus, iria), read-out: Visual Growth Reduction (%) 21 Days After Application CYPSS.
Setting [16] is: ECHSS: barnyardgrass (Echinochloa crus-galli), junglerice (Echinochloa colonum), read-out: Visual Growth Reduction (%) 21 Days After Application ECHSS.
Setting [17] is: LEFSS: sprangletop (Leptochloa chinensis, Leptochloa dubia), read-out: Visual Growth Reduction (%) 21 Days After Application LEFSS.
Setting [18] is: ORYSS: Oryza sativa, read-out: Visual Growth Reduction (%) 21 Days After Application ORYSS.
[19] abbreviates: SCPJU: Japanese bulrush, Scirpus juncoides, read-out: Visual Growth Reduction (%) 21 Days After Application SCPJU.
Setting [20] is: SEBEX: hemp sesbania, Sesbania exaltata, read-out: Visual Growth Reduction (%) 21 Days After Application SEBEX.

Read-outs that look alike come from different tables or passages of the source.

Take `C=Cc1c(C(=O)OC)nc(-c2ccc(Cl)c(F)c2)c(F)c1N` [Compound 215, methyl 4-amino-6-(4-chloro-3-fluorophenyl)-5-fluoro-3-vinylpicolinate]: the pest or weed control at 3960 g/ha fell in the range of 85 to 94% in test [1] (3.96 kg ai/ha); 30 to 44% in test [2] (3.96 kg ai/ha); 0 to 29% in test [3] (3.96 kg ai/ha); 95 to 100% in test [4] (3.96 kg ai/ha); 95 to 100% in test [5] (3.96 kg ai/ha).

Take `COC(=O)c1nc(-c2ccc(Br)c(F)c2F)c(F)c(N)c1Cl` [Compound 109, methyl 4-amino-6-(4-bromo-2,3-difluorophenyl)-3-chloro-5-fluoropicolinate]: the pest or weed control at 4000 g/ha in test [1] lay within 95 to 100%; in test [2] it was 75 to 84%; in test [3], 95 to 100%; in test [4], 95 to 100%; in test [5] it was 85 to 94%.

Turning to `N#Cc1ccc(-c2nc(C(=O)O)c(Cl)c(N)c2F)cc1` [Compound 39], the pest or weed control at 2000 g/ha in test [1] (2 kg ai/ha) lay within 85 to 94%; in test [2] (2 kg ai/ha), 75 to 84%; in test [4] (2 kg ai/ha) it was 95 to 100%; in test [6] (2 kg ai/ha) it was 95 to 100%; in test [5] (2 kg ai/ha), 60 to 74%.

Take `Nc1c(F)c(-c2ccc(OC(F)F)cc2)nc(C(=O)O)c1Cl` [Compound 143]: the pest or weed control at 4000 g/ha in test [1] was 95 to 100%; in test [3], 95 to 100%; in test [4], 95 to 100%; in test [6], 95 to 100%; in test [5], 45 to 59%.

As for `Nc1c(F)c(-c2ccc(Br)cc2)nc(C(=O)O)c1Cl` [Compound 20], the pest or weed control at 4000 g/ha was 95 to 100% in test [1]; 75 to 84% in test [2]; 95 to 100% in test [3]; 95 to 100% in test [4]; 85 to 94% in test [5].

Regarding `COC(=O)c1nc(-c2ccccc2F)c(F)c(N)c1Cl` [Compound 206], the pest or weed control at 4040 g/ha in test [1] is 0 to 29%; in test [3], 0 to 29%; in test [4], 95 to 100%; in test [6] (4.04 kg ai/ha), 95 to 100%; in test [5] it was 75 to 84%.

Turning to `COC(=O)c1nc(-c2cccc(F)c2F)c(F)c(N)c1Cl` [Compound 199], the pest or weed control at 4000 g/ha in test [1] was in the range of 60 to 74%; in test [3] it was 85 to 94%; in test [4], 95 to 100%; in test [6] it was 95 to 100%; in test [5], 75 to 84%.

For the molecule `C=Cc1c(C(=O)O)nc(-c2ccc(Cl)c(F)c2)c(F)c1N` [Compound 214], the pest or weed control at 4040 g/ha in test [1] was in the range of 95 to 100%; in test [2] (4.04 kg ai/ha), 60 to 74%; in test [3] it was 85 to 94%; in test [4], 95 to 100%; in test [5] it was 95 to 100%.

Turning to `COc1c(N)nc(-c2cc(F)c(Br)cc2F)nc1C(=O)O` [Compound 11], in test [7] (setting [8]), the “GR50 BRAPP” value stood at 13 g ai/ha and the “GR80 BRAPP” value is 44 g ai/ha. Also, in test [7] (setting [9]), the “GR50 CYPSS” value is recorded as 1 g ai/ha and the “GR80 CYPSS” value is given as 1 g ai/ha. In addition, in test [7] (setting [10]), the “GR50 ECHSS” value was 11 g ai/ha and the “GR80 ECHSS” value came out at 25 g ai/ha. For the same molecule, in test [7] (setting [11]), the “GR50 LEFSS” value amounted to 175 g ai/ha and the “GR80 LEFSS” value stood at 463 g ai/ha. Besides, the “GR20 ORYSS” value in test [7] (ORYSS: Oryza sativa (crop), probit analysis) was found to be 25 g ai/ha. In test [7] (setting [12]), the “GR50 SCPJU” value is on record as 1 g ai/ha and the “GR80 SCPJU” value amounted to 1 g ai/ha. For the same molecule, in test [7] (setting [13]), the “GR50 SEBEX” value was 3 g ai/ha and the “GR80 SEBEX” value was determined as 7 g ai/ha. Further, in test [7] (setting [14]), the pest or weed control at 35 g/ha was in the range of 60 to 74% and the pest or weed control at 70 g/ha fell in the range of 85 to 94%. For the same molecule, in test [7] (setting [15]), the pest or weed control at 35 g/ha was in the range of 95 to 100% and the pest or weed control at 70 g/ha lay within 95 to 100%. In test [7] (setting [16]), the pest or weed control at 35 g/ha lay within 85 to 94% and the pest or weed control at 70 g/ha lay within 95 to 100%. For the same molecule, in test [7] (setting [17]), the pest or weed control at 35 g/ha was 0 to 29% and the pest or weed control at 70 g/ha lay within 0 to 29%. Besides, in test [7] (setting [18]), the pest or weed control at 35 g/ha was 30 to 44% and the pest or weed control at 70 g/ha lay within 45 to 59%. In test [7] (setting [19]), the pest or weed control at 35 g/ha lay within 95 to 100% and the pest or weed control at 70 g/ha is 95 to 100%. In test [7] (setting [20]), the pest or weed control at 35 g/ha lay in the range of 95 to 100% and the pest or weed control at 70 g/ha fell in the range of 95 to 100%.
